Reference: ChEMBL document CHEMBL5465560, “Selectivity Literature for EUbOPEN Chemogenomic Library” (2024)
Blank lines part the entries; values can stand above or below the molecule they belong to.

How the values were obtained:
[1] = target: Proto-oncogene tyrosine-protein kinase Src (Homo sapiens, UniProt P12931); experiment: Selectivity interaction (KinomeScan (DiscoverX)) EUB0001049a SRC; settings: at 1 µM
[2] = target: T1, Serine/threonine-protein kinase D3 (Homo sapiens) (UniProt O94806); experiment: Selectivity interaction (ActivX KiNativ screen (kinase selectivity in THP-1 cell lysates)) EUB0000639a PRKD3; assay type: subcellular; settings: lysate, at 0.04 µM
T1 sequence (whole entry): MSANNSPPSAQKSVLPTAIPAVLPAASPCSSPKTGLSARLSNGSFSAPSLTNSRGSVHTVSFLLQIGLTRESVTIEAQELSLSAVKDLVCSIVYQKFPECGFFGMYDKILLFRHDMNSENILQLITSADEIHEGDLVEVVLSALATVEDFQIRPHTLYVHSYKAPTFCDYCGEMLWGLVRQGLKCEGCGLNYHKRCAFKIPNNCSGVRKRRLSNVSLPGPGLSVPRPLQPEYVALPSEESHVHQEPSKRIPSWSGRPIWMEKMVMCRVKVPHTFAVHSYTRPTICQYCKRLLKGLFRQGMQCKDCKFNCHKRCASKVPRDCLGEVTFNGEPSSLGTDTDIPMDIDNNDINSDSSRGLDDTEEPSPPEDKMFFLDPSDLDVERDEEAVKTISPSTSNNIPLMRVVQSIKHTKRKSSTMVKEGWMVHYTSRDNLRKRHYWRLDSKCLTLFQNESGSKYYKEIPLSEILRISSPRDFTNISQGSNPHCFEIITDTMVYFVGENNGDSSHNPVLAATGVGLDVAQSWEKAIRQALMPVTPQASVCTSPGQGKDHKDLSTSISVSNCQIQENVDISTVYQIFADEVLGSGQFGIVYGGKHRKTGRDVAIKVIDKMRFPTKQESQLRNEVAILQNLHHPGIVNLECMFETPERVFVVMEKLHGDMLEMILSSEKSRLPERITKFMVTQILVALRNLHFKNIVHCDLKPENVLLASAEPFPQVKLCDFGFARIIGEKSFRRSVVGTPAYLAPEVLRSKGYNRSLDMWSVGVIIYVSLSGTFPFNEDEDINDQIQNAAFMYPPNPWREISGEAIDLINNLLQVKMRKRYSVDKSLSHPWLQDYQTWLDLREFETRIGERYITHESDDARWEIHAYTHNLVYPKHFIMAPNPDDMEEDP

[3] = target: Cholecystokinin receptor type A (Homo sapiens, UniProt P32238); experiment: Selectivity interaction (Cholecystokinin A receptor binding assay, human recombinant ) EUB0000877a CCKAR
[4] = target: Cyclin-dependent kinase-like 1 (Homo sapiens) (UniProt Q00532); experiment: Selectivity interaction (KinomeScan (DiscoverX)) EUB0000595a CDKL1; settings: at 10 µM
[5] = target: Ribosomal protein S6 kinase beta-1 (Homo sapiens, UniProt P23443); experiment: Selectivity interaction (KinomeScan (DiscoverX)) EUB0000229b RPS6KB1; settings: at 10 µM
[6] = target: T2, Calcium/calmodulin-dependent protein kinase type IV (Homo sapiens) (UniProt Q16566); experiment: Selectivity interaction (KinomeScan (DiscoverX)) EUB0000229b CAMK4; settings: at 10 µM
T2 sequence (whole entry): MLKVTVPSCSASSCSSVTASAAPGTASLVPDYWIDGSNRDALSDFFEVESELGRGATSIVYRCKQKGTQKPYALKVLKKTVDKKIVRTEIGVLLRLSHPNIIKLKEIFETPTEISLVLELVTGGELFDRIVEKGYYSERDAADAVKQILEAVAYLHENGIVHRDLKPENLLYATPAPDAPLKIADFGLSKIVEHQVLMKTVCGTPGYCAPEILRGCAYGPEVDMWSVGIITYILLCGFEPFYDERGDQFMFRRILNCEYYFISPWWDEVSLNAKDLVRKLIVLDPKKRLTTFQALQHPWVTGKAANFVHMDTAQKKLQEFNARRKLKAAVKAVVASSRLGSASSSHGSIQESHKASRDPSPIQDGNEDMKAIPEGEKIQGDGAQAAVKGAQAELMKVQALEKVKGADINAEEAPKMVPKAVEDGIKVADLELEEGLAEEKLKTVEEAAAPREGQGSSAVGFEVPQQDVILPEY

[7] = target: Cyclin-dependent kinase 4/cyclin D1 (Homo sapiens) (UniProt P11802+P24385); experiment: (§1) Selectivity interaction (KinomeScan (DiscoverX)) EUB0000666a CDK4; assay type: protein-complex assay; settings: at 10 µM
[8] = target: CDK4/Cyclin D3 (Homo sapiens) (UniProt P11802+P30281); experiment: as §1; assay type: protein-complex assay; settings: at 10 µM
[9] = target: T3, Dual specificity protein kinase TTK (Homo sapiens) (UniProt P33981); experiment: Selectivity interaction (Kinase panel (DSF assay)) EUB0001558a TTK
T3 sequence (whole entry): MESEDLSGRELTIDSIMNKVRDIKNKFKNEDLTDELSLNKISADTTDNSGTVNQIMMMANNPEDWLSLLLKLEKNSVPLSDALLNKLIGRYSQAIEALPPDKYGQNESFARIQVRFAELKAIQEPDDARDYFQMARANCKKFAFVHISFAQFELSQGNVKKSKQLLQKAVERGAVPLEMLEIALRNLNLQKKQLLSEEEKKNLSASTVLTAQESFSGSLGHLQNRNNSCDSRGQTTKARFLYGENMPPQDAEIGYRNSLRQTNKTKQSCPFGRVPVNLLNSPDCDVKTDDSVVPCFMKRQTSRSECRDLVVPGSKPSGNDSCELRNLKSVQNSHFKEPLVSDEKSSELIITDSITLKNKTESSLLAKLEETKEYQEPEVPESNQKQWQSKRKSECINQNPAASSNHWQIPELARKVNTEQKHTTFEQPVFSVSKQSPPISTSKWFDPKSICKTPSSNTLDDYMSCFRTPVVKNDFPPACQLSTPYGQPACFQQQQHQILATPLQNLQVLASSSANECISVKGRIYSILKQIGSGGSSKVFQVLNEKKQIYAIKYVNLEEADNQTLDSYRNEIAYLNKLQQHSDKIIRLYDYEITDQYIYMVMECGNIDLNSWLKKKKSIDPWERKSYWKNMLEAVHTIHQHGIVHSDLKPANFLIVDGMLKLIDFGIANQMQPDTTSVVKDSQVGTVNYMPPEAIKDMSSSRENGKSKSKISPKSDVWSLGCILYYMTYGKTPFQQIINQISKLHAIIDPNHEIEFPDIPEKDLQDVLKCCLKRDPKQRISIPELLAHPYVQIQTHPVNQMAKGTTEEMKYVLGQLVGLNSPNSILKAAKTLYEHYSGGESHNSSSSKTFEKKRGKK

Chain of Proto-oncogene tyrosine-protein kinase Src (P12931 2-536 limits assumed): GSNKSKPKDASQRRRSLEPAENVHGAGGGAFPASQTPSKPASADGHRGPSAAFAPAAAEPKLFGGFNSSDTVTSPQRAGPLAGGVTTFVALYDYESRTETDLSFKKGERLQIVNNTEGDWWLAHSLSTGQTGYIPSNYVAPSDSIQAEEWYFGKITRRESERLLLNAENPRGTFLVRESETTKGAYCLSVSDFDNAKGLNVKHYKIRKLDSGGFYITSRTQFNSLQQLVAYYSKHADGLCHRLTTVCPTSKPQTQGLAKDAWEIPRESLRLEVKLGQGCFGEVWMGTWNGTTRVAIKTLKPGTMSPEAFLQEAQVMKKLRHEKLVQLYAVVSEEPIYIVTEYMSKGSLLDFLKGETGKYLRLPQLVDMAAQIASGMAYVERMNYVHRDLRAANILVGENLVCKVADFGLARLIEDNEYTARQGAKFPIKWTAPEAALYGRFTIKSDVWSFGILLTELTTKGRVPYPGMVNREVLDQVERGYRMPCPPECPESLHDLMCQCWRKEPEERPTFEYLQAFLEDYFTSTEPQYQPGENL
Chain of Cholecystokinin receptor type A (P32238 whole entry): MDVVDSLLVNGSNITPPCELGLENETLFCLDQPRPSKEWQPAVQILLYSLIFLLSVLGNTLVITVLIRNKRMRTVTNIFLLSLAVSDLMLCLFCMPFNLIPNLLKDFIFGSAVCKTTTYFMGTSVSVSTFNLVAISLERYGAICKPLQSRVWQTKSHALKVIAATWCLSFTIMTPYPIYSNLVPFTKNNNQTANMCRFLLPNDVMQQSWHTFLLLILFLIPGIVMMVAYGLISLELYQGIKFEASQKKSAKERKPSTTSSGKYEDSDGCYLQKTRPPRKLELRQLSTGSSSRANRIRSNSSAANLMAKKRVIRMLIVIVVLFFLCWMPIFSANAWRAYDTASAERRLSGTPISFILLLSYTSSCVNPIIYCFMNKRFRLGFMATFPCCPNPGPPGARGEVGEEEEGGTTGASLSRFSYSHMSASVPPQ
Chain of Cyclin-dependent kinase-like 1 (Homo sapiens) (Q00532 whole entry): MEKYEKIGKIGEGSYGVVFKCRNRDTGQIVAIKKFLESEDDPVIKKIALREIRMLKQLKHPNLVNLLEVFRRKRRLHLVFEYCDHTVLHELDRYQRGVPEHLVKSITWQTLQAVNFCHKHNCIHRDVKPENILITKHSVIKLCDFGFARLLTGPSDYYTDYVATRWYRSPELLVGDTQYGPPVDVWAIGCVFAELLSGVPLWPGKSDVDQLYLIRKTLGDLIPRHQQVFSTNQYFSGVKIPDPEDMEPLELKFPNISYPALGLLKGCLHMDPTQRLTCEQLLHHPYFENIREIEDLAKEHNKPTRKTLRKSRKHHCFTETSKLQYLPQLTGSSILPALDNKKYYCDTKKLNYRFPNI
Chain of Ribosomal protein S6 kinase beta-1 (P23443 whole entry, looked up): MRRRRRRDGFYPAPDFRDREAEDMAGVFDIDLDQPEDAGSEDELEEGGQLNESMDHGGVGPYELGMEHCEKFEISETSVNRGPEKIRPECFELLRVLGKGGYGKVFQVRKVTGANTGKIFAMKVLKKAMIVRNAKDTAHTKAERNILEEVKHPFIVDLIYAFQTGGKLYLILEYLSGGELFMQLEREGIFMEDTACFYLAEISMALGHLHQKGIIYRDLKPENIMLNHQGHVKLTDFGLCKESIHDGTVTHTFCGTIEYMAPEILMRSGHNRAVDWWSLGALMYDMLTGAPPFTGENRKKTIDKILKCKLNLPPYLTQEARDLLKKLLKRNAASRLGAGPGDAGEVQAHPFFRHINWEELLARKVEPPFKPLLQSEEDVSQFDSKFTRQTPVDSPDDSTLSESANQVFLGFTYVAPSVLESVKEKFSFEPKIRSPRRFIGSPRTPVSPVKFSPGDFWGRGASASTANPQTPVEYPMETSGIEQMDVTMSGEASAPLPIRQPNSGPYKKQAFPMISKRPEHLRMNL

Compound: COc1cc(Nc2nc(C)cc(-c3cnn4nc(OC)ccc34)n2)cc(C(F)(F)F)c1
% of control [1]: 100%

% of inhibition [2]: 3.3%
Compound: CC[C@@H]1[C@H](F)C(=O)N[C@@H]1COc1nccc2cc(C(N)=O)c(OC)cc12 [ZIMLOVISERTIB]

IC50 [3]: > 30 µM
Compound: CCC(=O)N1CC[C@H](Nc2ncnc3c2CN(c2cnc(OC)c(C(F)(F)F)c2)CC3)C1 [LENIOLISIB]

Compound: COCC(=O)NC/C=C/c1ccc2ncnc(Nc3ccc(Oc4ccc(C)nc4)c(C)c3)c2c1 [CP-724714]
% of control [4]: 69%

Compound: COc1cc(N(C)c2ccnc3ccc(C(F)(F)F)cc23)cc(OC)c1OC
% binding [5]: 71%
% binding [6]: 98%

Compound: O=C(NOC[C@H](O)CO)c1ccc(F)c(F)c1Nc1ccc(I)cc1F
% of control [7]: 93%
% of control [8]: 84%

Compound: CC(C)(O)[C@H](F)CN1Cc2cc(NC(=O)c3cnn4cccnc34)c(N3CCOCC3)cc2C1=O
dTM [9]: 0.3 K
